According to US12390467B2, “Necroptosis inducers or autophagy inhibitors or a combination thereof” (The University of Toledo, priority 2018, dated 2025):
pIC50: −log10 of the molar value.

Legend:
Assay type in all cases: cell-based
[1] = test system: BT-20 and MDA-MB468 cells; test: Mitochondrial membrane potential assay (MitoTracker Red / Alexa Fluor 488 annexin V); settings: 0.5, 1, and 2 μM
Experimental: This assay is a direct measure of the structural integrity of mitochondria. Cells were seeded as indicated in the cell cycle assay and incubated for 24 h at 37° C. The next day, TPH104 (0.5, 1, 2 μM) or vehicle and incubated with the cells for 12 h. The cells were harvested, washed 2× with PBS, counted, and their concentrations were adjusted to 5×10^6 cells/well in the culture medium. Subsequently, 4 μl of the 10 μM solution of mitotracker red was added to each 1 ml aliquot of cells and incubated with the cells for 30 minutes at 37° C. The cells were washed 2× with PBS and re-suspended in the 100 μl of 1× annexin-binding buffer. The cells were stained with Alexa Fluor for 15 minutes and analyzed using flow cytometry as described in the manufacturer protocol (Thermofisher, USA).

MDA-MB468 cells = test: Nuclear condensation and morphology, MDA-MB468
Experimental: To detect DNA fragmentation following apoptotic cell death, the Hoechst 33258 assay was performed. Briefly, TNBC cells were seeded in a 6-well plate at a density of 10,000 cells/well over 18-mm cover slips and incubated for 24 h. Following incubation, TPH104 (1, 2, or 5 μM), or vehicle were added for an additional 12 h. Subsequently, Hoechst 33258 (Sigma Aldrich, USA) was added to the cells at a concentration of 0.5 mg/mL and incubated for 30 minutes at 37° C. The cells were then washed 3× with phosphate buffered saline (PBS). Subsequently, the cover slips were mounted on a microscope glass/slide and allowed to dry for at least 2 h. Stained cells from each cover slip were captured from randomly selected fields under a fluorescent microscope (EVOS-FLC cell imaging system, Thermofisher scientific) to qualitatively determine the proportion of viable and apoptotic cells based on their relative fluorescence and nuclear fragmentation as previously described.

[2] = biological target: T1, P-gp (ABCB1), DU145TXR prostate cancer cells (Homo sapiens, UniProt P08183); test: Calcein AM assay for P-gp modulation; settings: concentration dependent
T1 construct: endogenous in cells; host or cells: DU145TXR prostate cancer cells
T1 sequence (P08183 whole entry): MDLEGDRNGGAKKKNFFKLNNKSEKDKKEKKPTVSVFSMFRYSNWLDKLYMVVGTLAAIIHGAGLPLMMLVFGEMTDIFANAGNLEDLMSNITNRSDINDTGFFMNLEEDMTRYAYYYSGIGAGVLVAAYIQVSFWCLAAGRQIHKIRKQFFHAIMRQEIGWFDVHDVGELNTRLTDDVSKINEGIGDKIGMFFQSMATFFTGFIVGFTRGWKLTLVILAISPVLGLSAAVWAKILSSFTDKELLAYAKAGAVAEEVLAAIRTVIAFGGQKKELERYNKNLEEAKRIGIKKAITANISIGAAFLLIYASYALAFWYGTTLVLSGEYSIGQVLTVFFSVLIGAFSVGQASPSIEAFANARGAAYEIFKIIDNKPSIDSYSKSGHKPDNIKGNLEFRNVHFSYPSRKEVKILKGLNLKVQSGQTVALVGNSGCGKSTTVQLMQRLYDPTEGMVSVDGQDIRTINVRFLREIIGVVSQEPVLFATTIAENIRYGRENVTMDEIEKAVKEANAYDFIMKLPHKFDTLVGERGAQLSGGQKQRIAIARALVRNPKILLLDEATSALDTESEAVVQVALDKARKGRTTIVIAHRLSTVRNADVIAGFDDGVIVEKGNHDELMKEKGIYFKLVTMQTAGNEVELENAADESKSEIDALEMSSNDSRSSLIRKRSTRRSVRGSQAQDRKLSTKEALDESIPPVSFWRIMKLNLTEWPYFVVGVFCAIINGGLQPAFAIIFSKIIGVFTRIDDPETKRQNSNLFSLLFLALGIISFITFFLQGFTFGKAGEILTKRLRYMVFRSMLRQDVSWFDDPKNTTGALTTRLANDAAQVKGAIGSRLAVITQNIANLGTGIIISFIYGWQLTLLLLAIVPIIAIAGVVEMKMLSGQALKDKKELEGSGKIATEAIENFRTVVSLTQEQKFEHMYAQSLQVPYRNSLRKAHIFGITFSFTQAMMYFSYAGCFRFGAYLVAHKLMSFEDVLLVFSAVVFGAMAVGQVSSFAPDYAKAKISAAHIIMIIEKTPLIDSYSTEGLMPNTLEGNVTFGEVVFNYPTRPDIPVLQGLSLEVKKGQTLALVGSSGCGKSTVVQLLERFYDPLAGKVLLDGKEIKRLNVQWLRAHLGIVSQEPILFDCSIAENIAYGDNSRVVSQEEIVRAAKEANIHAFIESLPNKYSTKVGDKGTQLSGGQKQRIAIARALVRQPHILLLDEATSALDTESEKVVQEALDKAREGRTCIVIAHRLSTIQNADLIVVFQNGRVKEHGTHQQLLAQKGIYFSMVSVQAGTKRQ
Experimental: Ability of P-gp to efflux Calcein AM is used to identify the molecules which interfere with P-gp transporter activity. About 10000 cells of DU145TXR prostate cancer cells were seeded in each well in 96 well plates and allowed to grow until confluency for 4-5 days. Then media was replaced with phenol red free RPMI media and cells were treated with indicated concentrations of TPH104s and 1 μg/mL of Calcein AM. Fluorescence measured after 60 minutes with excitation at 485/20 nm and at emission 535/20 nm using the BioTek Cytation 5 imaging multi-mode reader (Bio-Tek, Winooski, VT). DMSO (0.5% v/v) was used as the vehicle, and 15 μM of Pgp inhibitor SMU 45 was used as a positive control. (n=6 in each trial).

[3] = test system: normal human mammary epithelial cells (HMEC); test: MTT cell viability assay, HMEC
Experimental: (§1) The following cancer and non-cancer cell lines were used in the initial cytotoxicity screening of the TPH104 compounds: triple negative breast cancer (TNBC): MDA-MB468, MDA-MB 231, and BT-20; non-TNBC: MCF-7 and ZR-75-1; ovarian: Ov2008; prostate: DU145; colon: HCT-116, S1, and LOVO; lung: H460; normal kidney: HEK-293; normal breast: HMEC; and normal colon: CRL-1459. All cells were cultured in Dulbecco's modified Eagle medium (DMEM), supplemented with 10% fetal bovine serum (FBS), and 1% penicillin/streptomycin (P/S). Cells were allowed to grow as adherent monolayers in T25 flasks in a humidified incubator with 5% CO2 at 37° C. for a period of 24 h, unless otherwise specified for certain experiments.
The MTT assay was used to determine the cytotoxicity of all of the compounds. Briefly, in a 96-well flat-bottom cell culture plate, the cells were seeded at a density between 3-5×10^3 cells/well (180 μl in each well) and incubated for 24 h (a hemocytometer was used for cell counting). The next day, the cells were incubated with different concentrations of the nine compounds (0, 0.1, 0.3, 1, 3, 10, 30, and 100 μM) for 72 h. After 72 h, 20 μl of 5 mg/ml of 3-(4,5-dimethylthiazol-2-yl)-2,5-diphenyltetrazolium bromide (MTT) was added to the plate and incubated with the cells for 3 h at 37° C. In this experiment, the living cells will reduce the soluble MTT dye to non-soluble purple formazan crystals. Following incubation, the media containing MTT removed via suction and 100 μL of 100% dimethyl sulfoxide (DMSO) was added to dissolve the formazan crystals. Subsequently, the plate was shaken for 2 minutes and the absorbance was measured at a wavelength of 570 nm using a SpectraMax iD3 Multi-Mode Microplate Reader (Molecular Devices, Sunnyvale, CA). The IC50 values of each compound were calculated and used to determine the selectivity ratio (IC50 in normal cells/IC50 in cancer cells) of each compound as previously described. Based on the results obtained from these experiments, the compound TPH104, which had the lowest IC50 value, was selected for further experiments.

[4] = biological target: T2, ABCG2 transporter (S1M180 cells) (Homo sapiens, UniProt Q9UNQ0, R482G); test: Intracellular accumulation of rhodamine 123; settings: 0.05-1 μM
T2 construct: intracellular accumulation of rhodamine 123 in ABCG2 overexpressing S1M180 cells; endogenous in cells; host or cells: S1M180 colon cancer cells
T2 sequence (Q9UNQ0 whole entry R482G, one chain of several): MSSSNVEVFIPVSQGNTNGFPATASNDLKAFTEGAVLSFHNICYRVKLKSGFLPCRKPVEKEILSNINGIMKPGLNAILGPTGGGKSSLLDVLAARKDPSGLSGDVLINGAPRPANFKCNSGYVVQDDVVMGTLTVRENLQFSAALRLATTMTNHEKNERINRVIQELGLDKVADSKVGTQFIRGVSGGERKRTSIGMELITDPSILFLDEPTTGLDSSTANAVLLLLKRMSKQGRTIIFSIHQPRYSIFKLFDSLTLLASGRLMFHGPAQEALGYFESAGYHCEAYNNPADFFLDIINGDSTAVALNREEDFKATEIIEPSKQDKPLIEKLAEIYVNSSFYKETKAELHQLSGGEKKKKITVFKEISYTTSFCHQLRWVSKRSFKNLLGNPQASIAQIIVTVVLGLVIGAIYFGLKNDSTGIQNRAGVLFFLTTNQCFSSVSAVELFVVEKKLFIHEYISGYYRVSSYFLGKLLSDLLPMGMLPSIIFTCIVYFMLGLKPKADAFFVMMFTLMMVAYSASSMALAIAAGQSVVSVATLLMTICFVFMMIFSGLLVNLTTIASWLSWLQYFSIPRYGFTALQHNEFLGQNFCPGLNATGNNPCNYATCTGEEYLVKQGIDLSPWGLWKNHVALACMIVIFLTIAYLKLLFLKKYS
Experimental: FIG. 26: TPH104 reverses multidrug resistance by blocking the function of ABCG2 transporter. The effect of TPH104 and nilotinib on the intracellular accumulation of rhodamine 123 in ABCG2 overexpressing S1M180 cells. The top image is a graph showing the concentration-dependent increase in the accumulation of rhodamine 123 in S1M180 cells incubated with TPH104. Red filled=control; sky blue filled=0.05 μM; brown filled=0.1 μM; dark blue filled=0.3 μM; lime green filled=1 μM of TPH104, respectively, and olive green=nilotinib, 5 μM. The bottom image is a bar graph representing the relative rhodamine 123 accumulation levels. The data shown as means±SEM of three independent experiments. *p<0.05; ***p<0.001 compared to the control.

[5] = test system: lung (H460), ovarian (OV2008), prostate (DU145), and colon (HCT-116, LOVO, S1); test: MTT cytotoxicity screening, other cancer types; settings: H460, OV2008, DU145, HCT-116, LOVO, less potently than in TNBC
Experimental: as §1
The MTT assay was used to determine the cytotoxicity of all of the compounds. […] Subsequently, the plate was shaken for 2 minutes and the absorbance was measured at a wavelength of 570 nm using a SpectraMax iD3 Multi-Mode Microplate Reader (Molecular Devices, Sunnyvale, CA). The IC50 values of each compound were calculated and used to determine the selectivity ratio (IC50 in normal cells/IC50 in cancer cells) of each compound as previously described. […]
Table 3 (FIG. 30)-Cytotoxicity screening of TPH104 compounds against Colon (HCT-116, LOVO and S1), Prostate (DU145), Ovarian (Ov 2008), and Lung (H460) cancer cell lines. Cell survival was determined using MTT assay as described. […]

With `COc1ccc(O)c(/C=N/Nc2ncnc3scc(-c4ccc(C)cc4)c23)c1` [TPH104] the mitochondrial membrane potential [1] was “did not significantly alter”, the “number of cells in the second quadrant (Q2), apoptotic cells” value ([1]; flow cytometry) was “did not significantly alter” and the “nuclear condensation or cellular shrinkage” value (MDA-MB468 cells) was “did not produce”. The “efflux function of ABCB1” value [2] was “blocking the efflux function”, the “selectivity fold on TNBC cells compared to normal human mammary epithelial cells” value [3] was “more than 100 fold” and the “IC50 for HMEC, fold higher than the IC50 values for TNBC cells” value ([3]; HMEC vs TNBC cells) was 330-411 fold. For the same compound, the pIC50 ([3]; Homo sapiens, HMEC, MTT, 72 h, Normal, read-out: IC50 ± SD, HMEC) was 4.08, the “intracellular accumulation of rhodamine 123” value [4] was “increased” and the “proliferation of other types of cancer” value [5] was “significantly inhibited”.
